Source: ChEMBL document CHEMBL4138236, “Trisubstituted barbiturates and thiobarbiturates: Synthesis and biological evaluation as xanthine oxidase inhibitors, antioxidants, antibacterial and anti-proliferative agents” (Eur J Med Chem, 2018)
≈ marks a conversion by molar mass, not a printed value.

System: Acinetobacter baumannii
Assay: Antibacterial activity against Acinetobacter baumannii LMG 1025 after 24 hrs by broth microdilution method
Format: functional
Settings: LMG 1025, 24 h

Row | Structure (SMILES) | MIC [µM]
1 | O=C1NC(=S)NC(=O)C1=CNc1ccc([N+](=O)[O-])cc1Cl | > 200
2 | CC(NNc1ccccc1)=C1C(=O)NC(=O)NC1=O | 25 (≈ 6.51 µg/mL)
3 | CC(NNc1ccc([N+](=O)[O-])cc1)=C1C(=O)N(C)C(=O)N(C)C1=O | 12.5 (≈ 4.17 µg/mL)
4 | CC(NNc1ccccc1)=C1C(=O)N(C)C(=O)N(C)C1=O | 25 (≈ 7.21 µg/mL)
5 | CN1C(=O)C(=CNc2ccccc2C(=O)O)C(=O)N(C)C1=O | > 200
6 | CC(=O)C1C(=O)NC(=O)NC1=O | > 200
7 | NC(=O)NC=C1C(=O)NC(=O)NC1=O | > 200
8 | N#CC(c1ccc(Br)cc1)c1c([O-])[nH]c(=S)[nH]c1=O.[Na+] (centres undefined) | > 200

System: not listed separately
Assay: Antioxidant activity assessed as DPPH radical scavenging activity at 30 uM after 60 mins by spectrophotometric method relative to control
Format: functional
Settings: not given

Row | Structure (SMILES) | Activity [%]
9 | O=C1NC(=S)NC(=O)C1=CNc1ccc([N+](=O)[O-])cc1Cl | 0.5
10 | CC(NNc1ccccc1)=C1C(=O)NC(=O)NC1=O | 78.1
11 | CC(NNc1ccc([N+](=O)[O-])cc1)=C1C(=O)N(C)C(=O)N(C)C1=O | 76
12 | CC(NNc1ccccc1)=C1C(=O)N(C)C(=O)N(C)C1=O | 76.7
13 | CN1C(=O)C(=CNc2ccccc2C(=O)O)C(=O)N(C)C1=O | 1.98
14 | CC(=O)C1C(=O)NC(=O)NC1=O | -7.28
15 | Cc1c(C)c2c(c(C)c1O)CCC(C)(C(=O)O)O2 (centres undefined) [TROLOX] | 70.3
16 | NC(=O)NC=C1C(=O)NC(=O)NC1=O | -5.32
17 | N#CC(c1ccc(Br)cc1)c1c([O-])[nH]c(=S)[nH]c1=O.[Na+] (centres undefined) | -8.33

System: MCF7
Assay: cells
Settings: Homo sapiens, MCF7, 72 h

Row | Structure (SMILES) | IC50 [µM]
18 | O=C1NC(=S)NC(=O)C1=CNc1ccc([N+](=O)[O-])cc1Cl | 13.2
19 | O=c1[nH]cc(F)c(=O)[nH]1 [FLUOROURACIL] | 2.35

System: not listed separately
Assay: Antioxidant activity assessed as DPPH radical scavenging activity after 60 mins by spectrophotometric method
Format: functional
Settings: not given

Row | Structure (SMILES) | IC50 [µM]
20 | CC(NNc1ccccc1)=C1C(=O)NC(=O)NC1=O | 20.4
21 | CC(NNc1ccc([N+](=O)[O-])cc1)=C1C(=O)N(C)C(=O)N(C)C1=O | 23.8
22 | CC(NNc1ccccc1)=C1C(=O)N(C)C(=O)N(C)C1=O | 18.8
23 | Cc1c(C)c2c(c(C)c1O)CCC(C)(C(=O)O)O2 (centres undefined) [TROLOX] | 35.9

System: Escherichia coli
Assay: Antibacterial activity against Escherichia coli ATCC 25922 after 24 hrs by broth microdilution method
Format: functional
Settings: ATCC 25922, 24 h

Row | Structure (SMILES) | MIC [µM]
24 | O=C1NC(=S)NC(=O)C1=CNc1ccc([N+](=O)[O-])cc1Cl | > 200
25 | CC(NNc1ccccc1)=C1C(=O)NC(=O)NC1=O | > 200
26 | CC(NNc1ccc([N+](=O)[O-])cc1)=C1C(=O)N(C)C(=O)N(C)C1=O | > 200
27 | CC(NNc1ccccc1)=C1C(=O)N(C)C(=O)N(C)C1=O | > 200
28 | CN1C(=O)C(=CNc2ccccc2C(=O)O)C(=O)N(C)C1=O | > 200
29 | CC(=O)C1C(=O)NC(=O)NC1=O | > 200
30 | NC(=O)NC=C1C(=O)NC(=O)NC1=O | > 200
31 | N#CC(c1ccc(Br)cc1)c1c([O-])[nH]c(=S)[nH]c1=O.[Na+] (centres undefined) | > 200

System: MCF7
Assay: Antiproliferative activity against human MCF7 cells at 30 uM after 72 hrs by MTT assay relative to control
Format: functional
Settings: not given

Row | Structure (SMILES) | Activity [%]
32 | O=C1NC(=S)NC(=O)C1=CNc1ccc([N+](=O)[O-])cc1Cl | 32.43
33 | CC(NNc1ccccc1)=C1C(=O)NC(=O)NC1=O | 40.24
34 | CC(NNc1ccc([N+](=O)[O-])cc1)=C1C(=O)N(C)C(=O)N(C)C1=O | 76.99
35 | O=c1[nH]cc(F)c(=O)[nH]1 [FLUOROURACIL] | 11.88
36 | CC(NNc1ccccc1)=C1C(=O)N(C)C(=O)N(C)C1=O | 57.38
37 | CN1C(=O)C(=CNc2ccccc2C(=O)O)C(=O)N(C)C1=O | 50.34
38 | CC(=O)C1C(=O)NC(=O)NC1=O | 80.64
39 | NC(=O)NC=C1C(=O)NC(=O)NC1=O | 55.71
40 | N#CC(c1ccc(Br)cc1)c1c([O-])[nH]c(=S)[nH]c1=O.[Na+] (centres undefined) | 90.08

System: NHDF
Assay: Antiproliferative activity against NHDF at 30 uM after 72 hrs by MTT assay relative to control
Format: cell-based
Settings: human

Row | Structure (SMILES) | Activity [%]
41 | O=C1NC(=S)NC(=O)C1=CNc1ccc([N+](=O)[O-])cc1Cl | 76.01
42 | CC(NNc1ccccc1)=C1C(=O)NC(=O)NC1=O | 74.87
43 | CC(NNc1ccc([N+](=O)[O-])cc1)=C1C(=O)N(C)C(=O)N(C)C1=O | 77.63
44 | O=c1[nH]cc(F)c(=O)[nH]1 [FLUOROURACIL] | 58.31
45 | CC(NNc1ccccc1)=C1C(=O)N(C)C(=O)N(C)C1=O | 65.56
46 | CN1C(=O)C(=CNc2ccccc2C(=O)O)C(=O)N(C)C1=O | 71.19
47 | CC(=O)C1C(=O)NC(=O)NC1=O | 124.84
48 | NC(=O)NC=C1C(=O)NC(=O)NC1=O | 78.89
49 | N#CC(c1ccc(Br)cc1)c1c([O-])[nH]c(=S)[nH]c1=O.[Na+] (centres undefined) | 89.93

System: not listed separately
Assay: Antioxidant activity assessed as DPPH radical scavenging activity after 20 mins by spectrophotometric method
Format: functional
Settings: not given

Row | Structure (SMILES) | IC50 [µM]
50 | CC(NNc1ccccc1)=C1C(=O)NC(=O)NC1=O | 23.9
51 | CC(NNc1ccc([N+](=O)[O-])cc1)=C1C(=O)N(C)C(=O)N(C)C1=O | 23.9
52 | CC(NNc1ccccc1)=C1C(=O)N(C)C(=O)N(C)C1=O | 22.6
53 | Cc1c(C)c2c(c(C)c1O)CCC(C)(C(=O)O)O2 (centres undefined) [TROLOX] | 33.8

System: Staphylococcus aureus
Assay: Antibacterial activity against Staphylococcus aureus ATCC 25923 after 24 hrs by broth microdilution method
Format: functional
Settings: ATCC 25923, 24 h

Row | Structure (SMILES) | MIC [µM]
54 | O=C1NC(=S)NC(=O)C1=CNc1ccc([N+](=O)[O-])cc1Cl | > 200
55 | CC(NNc1ccccc1)=C1C(=O)NC(=O)NC1=O | > 200
56 | CC(NNc1ccc([N+](=O)[O-])cc1)=C1C(=O)N(C)C(=O)N(C)C1=O | > 200
57 | CC(NNc1ccccc1)=C1C(=O)N(C)C(=O)N(C)C1=O | > 200
58 | CN1C(=O)C(=CNc2ccccc2C(=O)O)C(=O)N(C)C1=O | > 200
59 | CC(=O)C1C(=O)NC(=O)NC1=O | > 200
60 | NC(=O)NC=C1C(=O)NC(=O)NC1=O | > 200
61 | N#CC(c1ccc(Br)cc1)c1c([O-])[nH]c(=S)[nH]c1=O.[Na+] (centres undefined) | > 200

System: NHDF
Assay: Antiproliferative activity against NHDF after 72 hrs by MTT assay
Format: cell-based
Settings: Homo sapiens

Row | Structure (SMILES) | IC50 [µM]
62 | O=c1[nH]cc(F)c(=O)[nH]1 [FLUOROURACIL] | 7.38
63 | CC(NNc1ccccc1)=C1C(=O)N(C)C(=O)N(C)C1=O | 82

System: Salmonella typhimurium
Assay: Antibacterial activity against Salmonella typhimurium ATCC 13311 after 24 hrs by broth microdilution method
Format: functional, Salmonella enterica subsp. enterica serovar Typhimurium
Settings: Salmonella enterica, ATCC 13311, 24 h

Row | Structure (SMILES) | MIC [µM]
64 | O=C1NC(=S)NC(=O)C1=CNc1ccc([N+](=O)[O-])cc1Cl | > 200
65 | CC(NNc1ccccc1)=C1C(=O)NC(=O)NC1=O | > 200
66 | CC(NNc1ccc([N+](=O)[O-])cc1)=C1C(=O)N(C)C(=O)N(C)C1=O | > 200
67 | CC(NNc1ccccc1)=C1C(=O)N(C)C(=O)N(C)C1=O | > 200
68 | CN1C(=O)C(=CNc2ccccc2C(=O)O)C(=O)N(C)C1=O | > 200
69 | CC(=O)C1C(=O)NC(=O)NC1=O | > 200
70 | NC(=O)NC=C1C(=O)NC(=O)NC1=O | > 200
71 | N#CC(c1ccc(Br)cc1)c1c([O-])[nH]c(=S)[nH]c1=O.[Na+] (centres undefined) | > 200

System: Pseudomonas aeruginosa
Assay: Antibacterial activity against Pseudomonas aeruginosa ATCC 27853 after 24 hrs by broth microdilution method
Format: functional
Settings: ATCC 27853, 24 h

Row | Structure (SMILES) | MIC [µM]
72 | O=C1NC(=S)NC(=O)C1=CNc1ccc([N+](=O)[O-])cc1Cl | > 200
73 | CC(NNc1ccccc1)=C1C(=O)NC(=O)NC1=O | > 200
74 | CC(NNc1ccc([N+](=O)[O-])cc1)=C1C(=O)N(C)C(=O)N(C)C1=O | > 200
75 | CC(NNc1ccccc1)=C1C(=O)N(C)C(=O)N(C)C1=O | > 200
76 | CN1C(=O)C(=CNc2ccccc2C(=O)O)C(=O)N(C)C1=O | > 200
77 | CC(=O)C1C(=O)NC(=O)NC1=O | > 200
78 | NC(=O)NC=C1C(=O)NC(=O)NC1=O | > 200
79 | N#CC(c1ccc(Br)cc1)c1c([O-])[nH]c(=S)[nH]c1=O.[Na+] (centres undefined) | > 200

System: Klebsiella pneumoniae
Assay: Antibacterial activity against Klebsiella pneumoniae ATCC 13883 after 24 hrs by broth microdilution method
Format: functional
Settings: ATCC 13883, 24 h

Row | Structure (SMILES) | MIC [µM]
80 | O=C1NC(=S)NC(=O)C1=CNc1ccc([N+](=O)[O-])cc1Cl | > 200
81 | CC(NNc1ccccc1)=C1C(=O)NC(=O)NC1=O | > 200
82 | CC(NNc1ccc([N+](=O)[O-])cc1)=C1C(=O)N(C)C(=O)N(C)C1=O | > 200
83 | CC(NNc1ccccc1)=C1C(=O)N(C)C(=O)N(C)C1=O | > 200
84 | CN1C(=O)C(=CNc2ccccc2C(=O)O)C(=O)N(C)C1=O | > 200
85 | CC(=O)C1C(=O)NC(=O)NC1=O | > 200
86 | NC(=O)NC=C1C(=O)NC(=O)NC1=O | > 200
87 | N#CC(c1ccc(Br)cc1)c1c([O-])[nH]c(=S)[nH]c1=O.[Na+] (centres undefined) | > 200

System: not listed separately
Assay: Antioxidant activity assessed as DPPH radical scavenging activity at 30 uM after 20 mins by spectrophotometric method relative to control
Format: functional
Settings: not given

Row | Structure (SMILES) | Activity [%]
88 | O=C1NC(=S)NC(=O)C1=CNc1ccc([N+](=O)[O-])cc1Cl | 0.91
89 | CC(NNc1ccccc1)=C1C(=O)NC(=O)NC1=O | 77.1
90 | CC(NNc1ccc([N+](=O)[O-])cc1)=C1C(=O)N(C)C(=O)N(C)C1=O | 71.2
91 | CC(NNc1ccccc1)=C1C(=O)N(C)C(=O)N(C)C1=O | 77.1
92 | CN1C(=O)C(=CNc2ccccc2C(=O)O)C(=O)N(C)C1=O | 3.37
93 | CC(=O)C1C(=O)NC(=O)NC1=O | -6.91
94 | Cc1c(C)c2c(c(C)c1O)CCC(C)(C(=O)O)O2 (centres undefined) [TROLOX] | 70
95 | NC(=O)NC=C1C(=O)NC(=O)NC1=O | -5.19
96 | N#CC(c1ccc(Br)cc1)c1c([O-])[nH]c(=S)[nH]c1=O.[Na+] (centres undefined) | -9.22

System: Bacillus cereus
Assay: Antibacterial activity against Bacillus cereus ATCC 1178 after 24 hrs by broth microdilution method
Format: functional
Settings: ATCC 1178, 24 h

Row | Structure (SMILES) | MIC [µM]
97 | O=C1NC(=S)NC(=O)C1=CNc1ccc([N+](=O)[O-])cc1Cl | > 200
98 | CC(NNc1ccccc1)=C1C(=O)NC(=O)NC1=O | > 200
99 | CC(NNc1ccc([N+](=O)[O-])cc1)=C1C(=O)N(C)C(=O)N(C)C1=O | > 200
100 | CC(NNc1ccccc1)=C1C(=O)N(C)C(=O)N(C)C1=O | > 200
101 | CN1C(=O)C(=CNc2ccccc2C(=O)O)C(=O)N(C)C1=O | > 200
102 | CC(=O)C1C(=O)NC(=O)NC1=O | > 200
103 | NC(=O)NC=C1C(=O)NC(=O)NC1=O | > 200
104 | N#CC(c1ccc(Br)cc1)c1c([O-])[nH]c(=S)[nH]c1=O.[Na+] (centres undefined) | > 200
